Holding throughout (type): cell-based
For one experiment, the system named is Parental (Ba/F3). In words: Ba/F3 cell proliferation inhibition. The following applies: BaF3; 72 hours, Cell Counting Kit-8. The essentials: (§1)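 GI50 derived from CCK-8 absorbance at 450 nm (2 h development), expressed relative to DMSO vehicle. Cells (parental or T315I-Bcr-Abl Ba/F3, 1×10^4/well) received nine threefold-diluted concentrations, final 0 to 10 μM, for 72 h at 37 °C.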

Another experiment relates to T315I-Bcr-Abl (Ba/F3). In words: Ba/F3 cell proliferation inhibition. As to conditions: BaF3; 72 hours, Cell Counting Kit-8. The essentials:
as §1

A further experiment deals with KOPM28 cells. In words: human CML cell proliferation inhibition. As to conditions: 72 hours, Cell Counting Kit-8. A digest of the protocol: (§2)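 Cell Counting Kit-8 read-out (450 nm, 2 h) after 72 h compound exposure at 37 °C gave GI50 relative to DMSO vehicle. Human CML lines: wild-type Bcr-Abl TCCS and KOPM28, plus T315I-TCCS and T315I-KOPM28; nine 5-fold dilutions, final 0-10 μM.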

The next experiment has as its system T315I-KOPM28 cells. In words: human CML cell proliferation inhibition. The following applies: 72 hours, Cell Counting Kit-8. The essentials: as §2
The next experiment relates to T315I-TCCS cells. In words: human CML cell proliferation inhibition. As to conditions: 72 hours, Cell Counting Kit-8. A digest of the protocol: as §2
In another experiment the test system is TCCS cells. In words: human CML cell proliferation inhibition. The following applies: 72 hours, Cell Counting Kit-8. The essentials:
as §2

`Cc1cc(F)c(C(=O)Nc2ccc(CN3CCN(CCO)CC3)c(C(F)(F)F)c2)cc1C#Cc1cnc2c(Nc3cn[nH]c3)cccn12` [Example 111, 5-((8-((1H-pyrazol-4-yl)amino)imidazo[1,2-a]pyridin-3-yl)ethynyl)-2-fluoro-N-(4-((4-(2-hydroxyethyl)piperazin-1-yl)methyl)-3-(trifluoromethyl)phenyl)-4-methylbenzamide]: the GI50 in the experiment on Parental (Ba/F3) was 500 to 5000 nM; in the experiment on T315I-Bcr-Abl (Ba/F3), 50 to 500 nM; with KOPM28 cells, less than 10 nM; in the experiment with T315I-KOPM28 cells it was less than 10 nM; in the experiment with T315I-TCCS cells, less than 10 nM; in the experiment with TCCS cells, less than 10 nM.
Consider `Cc1cc(F)c(C(=O)Nc2cc(-c3ccncc3)cc(C(C)(C)C#N)c2)cc1C#Cc1cnc2c(Nc3cn[nH]c3)cccn12` [Example 78, 5-((8-((1H-pyrazol-4-yl)amino)imidazo[1,2-a]pyridin-3-yl)ethynyl)-N-(3-(2-cyanopropan-2-yl)-5-(pyridin-4-yl)phenyl)-2-fluoro-4-methylbenzamide], for which the GI50 with Parental (Ba/F3) was greater than 5000 nM; in the experiment on T315I-Bcr-Abl (Ba/F3), 50 to 500 nM; with KOPM28 cells it was 100 nM; with T315I-KOPM28 cells it was greater than 100 nM; in the experiment with T315I-TCCS cells, greater than 100 nM; in the experiment on TCCS cells it was less than 10 nM.
Take `Cc1cc(F)c(C(=O)Nc2ccc(CN3CCN(S(C)(=O)=O)CC3)c(C(F)(F)F)c2)cc1C#Cc1cnc2c(Nc3cn[nH]c3)cccn12` [Example 113, 5-((8-((1H-pyrazol-4-yl)amino)imidazo[1,2-a]pyridin-3-yl)ethynyl)-2-fluoro-4-methyl-N-(4-((4-(methylsulfonyl)piperazin-1-yl)methyl)-3-(trifluoromethyl)phenyl)benzamide]: the GI50 is greater than 5000 nM with Parental (Ba/F3); 500 to 5000 nM in the experiment with T315I-Bcr-Abl (Ba/F3); less than 10 nM in the experiment on KOPM28 cells; greater than 100 nM with T315I-KOPM28 cells; greater than 100 nM in the experiment with T315I-TCCS cells; less than 10 nM in the experiment with TCCS cells.
Take `Cc1cc(F)c(C(=O)Nc2ccc(Cn3cncn3)c(C(F)(F)F)c2)cc1C#Cc1cnc2c(Nc3cn[nH]c3)cccn12` [Example 114, N-(4-((1H-1,2,4-triazol-1-yl)methyl)-3-(trifluoromethyl)phenyl)-5-((8-((1H-pyrazol-4-yl)amino)imidazo[1,2-a]pyridin-3-yl)ethynyl)-2-fluoro-4-methylbenzamide]: the GI50 in the experiment on Parental (Ba/F3) was greater than 5000 nM; in the experiment on T315I-Bcr-Abl (Ba/F3), 50 to 500 nM; in the experiment on KOPM28 cells, less than 10 nM; in the experiment on T315I-KOPM28 cells it was greater than 100 nM; in the experiment on T315I-TCCS cells, greater than 100 nM; in the experiment with TCCS cells it was less than 10 nM.
Regarding `Cc1cn(-c2cc(NC(=O)c3cc(C#Cc4cnc5c(Nc6cn[nH]c6)cccn45)c(C)cc3Cl)cc(C(C)(C)C#N)c2)cn1` [Example 76, 5-((8-((1H-pyrazol-4-yl)amino)imidazo[1,2-a]pyridin-3-yl)ethynyl)-2-chloro-N-(3-(2-cyanopropan-2-yl)-5-(4-methyl-1H-imidazol-1-yl)phenyl)-4-methylbenzamide], the GI50 with Parental (Ba/F3) was greater than 5000 nM; in the experiment on T315I-Bcr-Abl (Ba/F3) it was less than 50 nM; in the experiment with KOPM28 cells it was less than 10 nM; in the experiment on T315I-KOPM28 cells, 100 nM; in the experiment with T315I-TCCS cells, 100 nM; in the experiment on TCCS cells it was less than 10 nM.
For the compound `Cc1cc(F)c(C(=O)Nc2cc(N(C)CCCN(C)C)cc(C(C)(C)C#N)c2)cc1C#Cc1cnc2c(Nc3cnn(C)c3)cccn12` [Example 23, N-(3-(2-cyanopropan-2-yl)-5-((3-(dimethylamino)propyl)(methyl)amino)phenyl)-2-fluoro-4-methyl-5-((8-((1-methyl-1H-pyrazol-4-yl)amino)imidazo[1,2-a]pyridin-3-yl)ethynyl)benzamide], the GI50 with Parental (Ba/F3) was 500 to 5000 nM; in the experiment on T315I-Bcr-Abl (Ba/F3) it was 50 to 500 nM; with KOPM28 cells it was less than 10 nM; in the experiment with T315I-KOPM28 cells, greater than 100 nM; with T315I-TCCS cells, greater than 100 nM; in the experiment on TCCS cells, less than 10 nM.
Consider `Cc1cc(F)c(C(=O)Nc2cc(-c3ccncc3)cc(C(F)(F)F)c2)cc1C#Cc1cnc2c(Nc3cn[nH]c3)cccn12` [Example 97, 5-((8-((1H-pyrazol-4-yl)amino)imidazo[1,2-a]pyridin-3-yl)ethynyl)-2-fluoro-4-methyl-N-(3-(pyridin-4-yl)-5-(trifluoromethyl)phenyl)benzamide], for which the concentration for 50% growth inhibition (GI50) in the experiment on Parental (Ba/F3) was greater than 5000 nM; in the experiment with T315I-Bcr-Abl (Ba/F3), 50 to 500 nM; in the experiment with KOPM28 cells it was less than 10 nM; with T315I-KOPM28 cells it was greater than 100 nM; with T315I-TCCS cells, 100 nM; with TCCS cells, less than 10 nM.
Regarding `Cc1cc(F)c(C(=O)Nc2cc(-c3cccnc3)cc(C(C)(C)C#N)c2)cc1C#Cc1cnc2c(Nc3cn[nH]c3)cccn12` [Example 79, 5-((8-((1H-pyrazol-4-yl)amino)imidazo[1,2-a]pyridin-3-yl)ethynyl)-N-(3-(2-cyanopropan-2-yl)-5-(pyridin-3-yl)phenyl)-2-fluoro-4-methylbenzamide], the concentration for 50% growth inhibition (GI50) is greater than 5000 nM in the experiment on Parental (Ba/F3); 50 to 500 nM with T315I-Bcr-Abl (Ba/F3); less than 10 nM in the experiment on KOPM28 cells; greater than 100 nM in the experiment with T315I-KOPM28 cells; 100 nM in the experiment on T315I-TCCS cells; less than 10 nM with TCCS cells.
Turning to `Cc1cc(F)c(C(=O)Nc2cc(CN3CCCN(C)CC3)cc(C(F)(F)F)c2)cc1C#Cc1cnc2c(Nc3cnn(C)c3)cccn12` [Example 67, 2-fluoro-4-methyl-N-(3-((4-methyl-1,4-diazepan-1-yl)methyl)-5-(trifluoromethyl)phenyl)-5-((8-((1-methyl-1H-pyrazol-4-yl)amino)imidazo[1,2-a]pyridin-3-yl)ethynyl)benzamide], the GI50 is 500 to 5000 nM with Parental (Ba/F3); 50 to 500 nM with T315I-Bcr-Abl (Ba/F3); less than 10 nM with KOPM28 cells; 100 nM in the experiment on T315I-KOPM28 cells; 100 nM in the experiment on T315I-TCCS cells; less than 10 nM with TCCS cells.
Consider `Cc1cn(-c2cc(NC(=O)c3ccc(C)c(C#Cc4cnc5c(Nc6cnn(C)c6)cccn45)c3F)cc(C(C)(C)C#N)c2)cn1` [Example 3, N-(3-(2-cyanopropan-2-yl)-5-(4-methyl-1H-imidazol-1-yl)phenyl)-2-fluoro-4-methyl-3-((8-((1-methyl-1H-pyrazol-4-yl)amino)imidazo[1,2-a]pyridin-3-yl)ethynyl)benzamide], for which the GI50 in the experiment on Parental (Ba/F3) is greater than 5000 nM; in the experiment on T315I-Bcr-Abl (Ba/F3), less than 50 nM; in the experiment with KOPM28 cells, less than 10 nM; in the experiment on T315I-KOPM28 cells it was 100 nM; in the experiment with T315I-TCCS cells it was 100 nM; in the experiment with TCCS cells, less than 10 nM.
As to `Cc1cc(F)c(C(=O)Nc2ccc(CN3CCN(CCO)CC3)c(C(C)(C)C#N)c2)cc1C#Cc1cnc2c(Nc3cn[nH]c3)cccn12` [Example 92, 5-((8-((1H-pyrazol-4-yl)amino)imidazo[1,2-a]pyridin-3-yl)ethynyl)-N-(3-(2-cyanopropan-2-yl)-4-((4-(2-hydroxyethyl)piperazin-1-yl)methyl)phenyl)-2-fluoro-4-methylbenzamide], the concentration for 50% growth inhibition (GI50) in the experiment on Parental (Ba/F3) is 500 to 5000 nM; in the experiment on T315I-Bcr-Abl (Ba/F3) it was less than 50 nM; with KOPM28 cells, less than 10 nM; in the experiment on T315I-KOPM28 cells it was 100 nM; in the experiment on T315I-TCCS cells it was 100 nM; in the experiment with TCCS cells, less than 10 nM.
As for `Cc1cc(F)c(C(=O)Nc2cc(Cn3ccnc3)cc(C(C)(C)C#N)c2)cc1C#Cc1cnc2c(Nc3cnn(C)c3)cccn12` [Example 37, N-(3-((1H-imidazol-1-yl)methyl)-5-(2-cyanopropan-2-yl)phenyl)-2-fluoro-4-methyl-5-((8-((1-methyl-1H-pyrazol-4-yl)amino)imidazo[1,2-a]pyridin-3-yl)ethynyl)benzamide], the GI50 with Parental (Ba/F3) was greater than 5000 nM; with T315I-Bcr-Abl (Ba/F3), 50 to 500 nM; in the experiment on KOPM28 cells, less than 10 nM; in the experiment with T315I-KOPM28 cells, 100 nM; in the experiment on T315I-TCCS cells, 100 nM; in the experiment with TCCS cells it was less than 10 nM.
With `Cc1cc(F)c(C(=O)Nc2cc(CN3CCN(CC(F)(F)F)CC3)cc(C(C)(C)C#N)c2)cc1C#Cc1cnc2c(Nc3cnn(C)c3)cccn12` [Example 32, N-(3-(2-cyanopropan-2-yl)-5-((4-(2,2,2-trifluoroethyl)piperazin-1-yl)methyl)phenyl)-2-fluoro-4-methyl-5-((8-((1-methyl-1H-pyrazol-4-yl)amino)imidazo[1,2-a]pyridin-3-yl)ethynyl)benzamide], the GI50 in the experiment on Parental (Ba/F3) is greater than 5000 nM; in the experiment on T315I-Bcr-Abl (Ba/F3), 50 to 500 nM; in the experiment on KOPM28 cells, less than 10 nM; with T315I-KOPM28 cells, greater than 100 nM; in the experiment on T315I-TCCS cells, greater than 100 nM; in the experiment with TCCS cells, less than 10 nM.
On to `Cc1cc(F)c(C(=O)Nc2ccc(CN3CCN(CCO)CC3)c(C(C)(C)C#N)c2)cc1C#Cc1cnc2c(Nc3cnn(C)c3)cccn12` [Example 43, N-(3-(2-cyanopropan-2-yl)-4-((4-(2-hydroxyethyl)piperazin-1-yl)methyl)phenyl)-2-fluoro-4-methyl-5-((8-((1-methyl-1H-pyrazol-4-yl)amino)imidazo[1,2-a]pyridin-3-yl)ethynyl)benzamide], for which the GI50 with Parental (Ba/F3) was 500 to 5000 nM; with T315I-Bcr-Abl (Ba/F3), 50 to 500 nM; with KOPM28 cells it was less than 10 nM; in the experiment with T315I-KOPM28 cells it was greater than 100 nM; with T315I-TCCS cells it was 100 nM; with TCCS cells, less than 10 nM.
Consider `Cc1cc(F)c(C(=O)Nc2cc(Cn3ccnc3)cc(C(F)(F)F)c2)cc1C#Cc1cnc2c(Nc3cnn(C)c3)cccn12` [Example 73, N-(3-((1H-imidazol-1-yl)methyl)-5-(trifluoromethyl)phenyl)-2-fluoro-4-methyl-5-((8-((1-methyl-1H-pyrazol-4-yl)amino)imidazo[1,2-a]pyridin-3-yl)ethynyl)benzamide], for which the GI50 in the experiment on Parental (Ba/F3) was greater than 5000 nM; in the experiment with T315I-Bcr-Abl (Ba/F3) it was 50 to 500 nM; with KOPM28 cells it was less than 10 nM; in the experiment with T315I-KOPM28 cells, 100 nM; with T315I-TCCS cells it was 100 nM; with TCCS cells, less than 10 nM.

Values taken from patent publication US12673945B2, “3-((8-((1H-pyrazol-4-yl)amino)imidazo[1,2-a]pyridin-3-yl)ethinyl)-n-phenylbenzamide derivative, method for preparing same, and pharmaceutical composition containing same as active ingredient for prevention or treatment of cancer” (DAEGU-GYEONGBUK MEDICAL INNOVATION FOUNDATION, priority 2020, dated 2026).
